Reference: patent US20210085630A1, “PHARMACEUTICAL COMPOSITION AND USE THEREOF IN PREPARING DRUG FOR TREATING TUMOR MULTI-DRUG RESISTANCE” (SICHUAN JIUZHANG BIOLOGICAL SCIENCE AND TECHNOLOGY CO., LTD., priority 2018, published 2021)

How the values were obtained:
PD-1/PD-L1 [1] = assay: PD-1/PD-L1 expression rate in transplanted tumor tissues, multidrug resistance model; assay type: in vivo; details: transplanted tumor tissues of B16 melanoma mice with multidrug resistance (as titled), Example 5 regimen
From the text: (§1) The positive expression rate of PD-1/PD-L1 in tumor tissues was detected by immunohistochemical SP method.

[2] = test system: gemcitabine-resistant Lewis lung cancer; assay: Tumor weight and inhibition rate, transplanted gemcitabine-resistant Lewis lung cancer; assay type: in vivo; details: gemcitabine-resistant Lewis lung cancer mice; test drug 30 mg/kg i.p. once a day 5 days, then gemcitabine 300 mg/kg every other day; positive drug gemcitabine 300 mg/kg
Experimental: Lewis lung cancer cell lines were induced by the increased gradient concentration of gemcitabine, and established by clone screening and cultured without drug before the experiment.
After the drug was removed from the drug-resistant cell lines, the cell concentration was adjusted to 1×10^7/ml with the culture medium. 1×10^7/ml of cells were subcutaneously injected into the right armpit of mice, 0.1 ml per mouse.
After the average diameter of tumor reached […], the mice were randomly divided into test drug group 1, test drug group 2, test drug group 3, test drug group 4, test drug group 5, test drug group 6, positive drug group, and negative group, respectively.
Test drug group: the test drug group was first intraperitoneally injected, once a day, 30 mg/kg/time, for 5 consecutive days; administration was stopped, and the positive drug was given by intraperitoneal injection on the next day; wherein the positive drug dacarbazine was administrated once every other day, 60 mg/kg/time; wherein the positive drug gemcitabine was given once every other day, 300 mg/kg/time.
Positive drug group: positive drug dacarbazine was given once every other day, 60 mg/kg/time; positive drug gemcitabine was given once every other day, 300 mg/kg/time.
Negative group: normal saline was intraperitoneally injected, once a day, for 15 consecutive days.
(§2) After completion of administration, the experiment was stopped, and the mice were killed by cervical dislocation and weighed. The tumor was stripped and weighed, to calculate the tumor inhibition rate.

[3] = test system: drug-resistant A549 lung cancer cell lines; assay: MTT: non-cytotoxic concentration of test drugs, drug-resistant A549; assay type: cell-based, human; details: 48 h
Experimental: The culture and treatment methods of cells and drug-resistant cells were the same as above. For the experiment, there were eight groups: blank group, control group and test-drug groups. […] The plates were placed in an incubator and incubated for 48 h, then 5 mg/ml MTT (20 μl) was added to each well, and the plate was further incubated for 4 h.

[4] = test system: drug-resistant A375 melanoma cell lines; assay: MTT: non-cytotoxic concentration of test drugs, drug-resistant A375; assay type: cell-based, human; details: 48 h
Experimental: The culture and treatment methods of cells and drug-resistant cells were the same as above.
For the experiment, there were eight groups: blank group, control group and test-drug groups. […] The plates were placed in an incubator and incubated for 48 h, then 5 mg/ml MTT (20 μl) was added to each well, and the plate was further incubated for 4 h.

PD-1/PD-L1 [5] = assay: PD-1/PD-L1 expression rate in tumor tissues of Opdivo-resistant Lewis lung cancer mice; assay type: in vivo; details: tumor tissues of drug-resistant (Opdivo) Lewis lung cancer mice
From the text: as §1

[6] = test system: Opdivo-resistant B16 melanoma; assay: Antitumor effect (tumor volume, weight, inhibition rate) in Opdivo-resistant B16 melanoma mice; assay type: in vivo; details: for Tumor volume (cm^3): 30 mg/kg i.p. once a day, + Opdivo groups: test drug 5 days, then Opdivo 30 mg/kg every other day; for Tumor inhition rate (%) / Tumor weight: 30 mg/kg i.p., + Opdivo groups 30 + 30 mg/kg
Experimental: The concentration of cell lines was adjusted to 1×10^7/ml with the culture medium. 1×10^7/ml of cells were subcutaneously injected into the right armpit of mice, 0.1 ml per mouse.
The model mice were randomly divided into groups, eight for one group, and included test drug group 1, test drug group 2, test drug group 3, test drug group 4, positive drug Opdivo group, single drug chlorogenic acid group, test drug 1+Opdivo group, test drug 2+Opdivo group, test drug 3+Opdivo group, test drug 4+Opdivo group, and negative group, respectively.
Test drug group: from the second day after stopping administration to the model, the group received drug by intraperitoneal injection, once a day, 30 mg/kg.
Single drug group: from the second day after stopping administration to the model, the group received drug by intraperitoneal injection, once a day, 30 mg/kg.
Test drug+Opdivo group: from the second day after stopping administration to the model, the group received the test drug by intraperitoneal injection, once a day, and the test drug was stopped after administrating for 5 consecutive days; on the next day, Opdivo was intraperitoneally injected, once every other day, with the dosage of 30 mg/kg.
Positive drug group: once every other day, 30 mg/kg.
Negative group: normal saline was intraperitoneally injected, once a day, the same amount of saline.
Before each administration, the tumor volume was measured, and the experiment was stopped when the average tumor volume of negative group was greater than 1.5 cm^3.
as §2

PD-1/PD-L1 [7] = assay: PD-1/PD-L1 expression rate (immunohistochemical SP method), drug-resistant B16 melanoma tumor tissue; assay type: in vivo; details: transplanted tumor tissues of drug-resistant B16 melanoma in mice, Example 3 regimen
From the text: as §1

[8] = test system: CD4+T and CD8+T lymphocytes; assay: Number of CD4+T and CD8+T cells in Opdivo-resistant Lewis lung cancer mice; assay type: in vivo; details: drug-resistant (Opdivo) Lewis lung cancer mice, average of 6 high power fields
Experimental: (§3) The number of CD4+T and CD8+T lymphocytes was analyzed by immunofluorescence staining, and the average number of CD4+T and CD8+T cells infiltrated in 6 high power fields was counted.

[9] = test system: CD4+T and CD8+T lymphocytes; assay: Number of CD4+T and CD8+T cells (immunofluorescence), drug-resistant B16 melanoma transplanted tumor; assay type: in vivo; details: transplanted tumor of drug-resistant B16 melanoma in mice, average of 6 high power fields
Experimental: as §3

Compound | Expression rate of PD-1/PD-L1, Positive PD-L1 (PD-1/PD-L1 [1]) [%] | Tumor inhibitory rate (%) [2] [%] | Tumor weight (g) [2] | Non-cytotoxic concentration (all inhibition rates <10%) [3] [µg/mL] | Non-cytotoxic concentration (all inhibition rates <10%) [4] [µg/mL] | Expression rate of PD-1/PD-L1, Positive PD-L1 (PD-1/PD-L1 [5]) [%] | continuous treatment effect / effect on tumor volume control (in words) [6] | Tumor volume (cm^3) [6] [cm^3] | Tumor inhition rate (%) [6] [%] | Tumor weight [6] [g] | Expression rate of PD-1/PD-L1, Positive PD-L1 (PD-1/PD-L1 [7]) [%] | CD4 + T cells (number) [8] | CD8 + T cells (number) [8] | CD4 + T cells (number) [9] | CD8 + T cells (number) [9]
O=C(/C=C/c1ccc(O)c(O)c1)O[C@@H]1C[C@](O)(C(=O)O)C[C@@H](O)[C@H]1O [Chlorogenic acid, chlorogenic acid] | 72.26 | 10.48 | 2.05 ± 0.79 ^ g | 1256 | 830 | 70.36 | not obvious | 1.788 ± 0.539 | 3.18 | 2.74 ± 0.59 | 72.26 | 66.52 ± 4.63 | 119.38 ± 6.55 | 69.43 ± 4.72 | 88.62 ± 5.38
O=C(/C=C/c1ccc(O)cc1)O[C@@H]1C[C@](O)(C(=O)O)C[C@@H](O)[C@H]1O [Coumaroylquinic acid, coumaroylquinic acid] | 73.39 | 5.68 | 2.16 ± 0.41 ^ g | 1142 | 862 | 71.89 | – | 1.762 ± 0.947 | 4.24 | 2.71 ± 0.46 | 73.39 | 65.12 ± 5.17 | 113.64 ± 8.23 | 62.83 ± 7.51 | 91.53 ± 3.54
